Molecules are shown by their SMILES. Where two headings read alike, the source gives them in different places.

One compound from patent US11572590B2, “Methods for evaluating tumor cell spheroids using 3D microfluidic cell culture device” (Dana-Farber Cancer Institute, Inc., priority 2017, dated 2023) can be followed below.

What all share (experiment): SelectScreen Kinase Profiling, single point inhibition and IC50 for off-target kinases
What all share (format): biochemical

The target of test [1] is T1, off-target kinases (Homo sapiens, UniProt Q9NR20).
T1 sequence (Q9NR20 1-520): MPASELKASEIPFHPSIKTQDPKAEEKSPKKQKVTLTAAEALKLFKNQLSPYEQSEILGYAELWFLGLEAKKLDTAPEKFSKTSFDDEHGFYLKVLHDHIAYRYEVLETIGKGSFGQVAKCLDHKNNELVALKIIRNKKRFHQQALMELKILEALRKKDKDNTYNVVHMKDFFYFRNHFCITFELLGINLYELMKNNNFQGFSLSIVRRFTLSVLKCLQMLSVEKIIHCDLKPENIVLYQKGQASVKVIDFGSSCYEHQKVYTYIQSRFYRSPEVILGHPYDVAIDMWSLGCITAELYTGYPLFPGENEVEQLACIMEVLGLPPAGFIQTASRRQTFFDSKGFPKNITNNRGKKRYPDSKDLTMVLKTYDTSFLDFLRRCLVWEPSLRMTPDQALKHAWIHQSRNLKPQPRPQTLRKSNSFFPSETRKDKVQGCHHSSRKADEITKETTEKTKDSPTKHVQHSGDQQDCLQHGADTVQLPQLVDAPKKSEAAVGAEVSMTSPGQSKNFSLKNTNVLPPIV

In test [2] the target is off-target kinases (Homo sapiens, UniProt P41240). As to conditions: CSK, ZLYTE, ATP Km app.
For test [3], the target named is T2, off-target kinases (Homo sapiens, UniProt Q8IWQ3).
T2 sequence (Q8IWQ3 1-736): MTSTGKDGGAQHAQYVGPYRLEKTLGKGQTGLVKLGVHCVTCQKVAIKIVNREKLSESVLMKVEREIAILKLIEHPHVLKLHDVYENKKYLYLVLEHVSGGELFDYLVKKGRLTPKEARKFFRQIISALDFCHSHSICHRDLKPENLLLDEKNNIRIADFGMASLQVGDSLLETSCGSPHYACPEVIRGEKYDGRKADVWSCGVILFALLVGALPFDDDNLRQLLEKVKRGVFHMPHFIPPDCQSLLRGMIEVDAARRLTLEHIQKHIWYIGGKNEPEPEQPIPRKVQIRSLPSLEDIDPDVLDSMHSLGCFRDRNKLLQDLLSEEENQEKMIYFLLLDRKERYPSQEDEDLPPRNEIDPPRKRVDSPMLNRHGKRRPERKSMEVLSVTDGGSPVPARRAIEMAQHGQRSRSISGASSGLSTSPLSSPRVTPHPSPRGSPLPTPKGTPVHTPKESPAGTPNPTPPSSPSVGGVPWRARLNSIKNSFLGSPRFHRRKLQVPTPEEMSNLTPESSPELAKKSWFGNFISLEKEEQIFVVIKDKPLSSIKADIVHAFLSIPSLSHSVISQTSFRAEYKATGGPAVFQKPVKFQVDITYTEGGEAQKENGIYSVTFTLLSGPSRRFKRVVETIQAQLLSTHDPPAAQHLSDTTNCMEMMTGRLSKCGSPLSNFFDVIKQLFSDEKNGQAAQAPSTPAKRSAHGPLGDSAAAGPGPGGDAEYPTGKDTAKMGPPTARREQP
The following applies: BRSK2, LanthaScreen Binding. Background: TR-FRET usually uses a lanthanide donor and a delayed reading to cut background.

For test [4], the target named is off-target kinases (Homo sapiens, UniProt P48729). As to conditions: CSNK1A1 (CK1 alpha 1), ZLYTE, ATP Km app.
Test [5] concerns the target off-target kinases (Homo sapiens, UniProt P11362, V561M). The following applies: FGFR1 V561M, mutant y, LanthaScreen Binding.
For test [6], the target named is off-target kinases (Homo sapiens, UniProt P43250). The following applies: GRK6, ZLYTE, ATP Km app.
Test [7] addresses off-target kinases (Homo sapiens, UniProt P09769). As to conditions: FGR, ATP Km app, ZLYTE.

off-target kinases (Homo sapiens, UniProt P41240), sequence (P41240 whole entry): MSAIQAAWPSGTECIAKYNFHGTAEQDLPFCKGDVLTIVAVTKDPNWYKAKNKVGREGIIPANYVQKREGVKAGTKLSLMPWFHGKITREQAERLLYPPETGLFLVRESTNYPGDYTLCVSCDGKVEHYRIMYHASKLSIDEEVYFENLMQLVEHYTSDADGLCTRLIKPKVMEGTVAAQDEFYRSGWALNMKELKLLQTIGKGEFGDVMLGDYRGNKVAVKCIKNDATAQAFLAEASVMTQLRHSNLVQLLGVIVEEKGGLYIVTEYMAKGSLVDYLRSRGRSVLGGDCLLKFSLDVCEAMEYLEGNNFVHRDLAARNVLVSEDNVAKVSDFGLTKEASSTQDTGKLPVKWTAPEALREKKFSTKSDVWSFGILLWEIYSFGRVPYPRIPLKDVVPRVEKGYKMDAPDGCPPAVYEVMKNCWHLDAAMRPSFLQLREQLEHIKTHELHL
off-target kinases (Homo sapiens, UniProt P09769), sequence (P09769 whole entry): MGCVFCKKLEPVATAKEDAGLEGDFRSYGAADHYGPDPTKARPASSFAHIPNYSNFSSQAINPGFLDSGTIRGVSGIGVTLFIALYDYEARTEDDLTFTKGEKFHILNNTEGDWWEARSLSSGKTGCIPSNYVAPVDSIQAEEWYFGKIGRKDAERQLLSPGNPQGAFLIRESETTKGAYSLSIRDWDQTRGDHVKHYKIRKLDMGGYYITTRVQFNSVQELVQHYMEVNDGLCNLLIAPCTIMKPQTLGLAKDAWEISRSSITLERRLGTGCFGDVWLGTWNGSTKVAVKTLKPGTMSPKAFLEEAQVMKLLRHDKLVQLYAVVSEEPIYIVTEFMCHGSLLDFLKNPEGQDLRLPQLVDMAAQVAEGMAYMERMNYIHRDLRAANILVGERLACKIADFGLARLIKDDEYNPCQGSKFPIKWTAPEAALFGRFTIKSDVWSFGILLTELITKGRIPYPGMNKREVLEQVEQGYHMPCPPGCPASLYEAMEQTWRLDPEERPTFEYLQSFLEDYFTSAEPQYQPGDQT
off-target kinases (Homo sapiens, UniProt P48729), sequence (P48729 whole entry): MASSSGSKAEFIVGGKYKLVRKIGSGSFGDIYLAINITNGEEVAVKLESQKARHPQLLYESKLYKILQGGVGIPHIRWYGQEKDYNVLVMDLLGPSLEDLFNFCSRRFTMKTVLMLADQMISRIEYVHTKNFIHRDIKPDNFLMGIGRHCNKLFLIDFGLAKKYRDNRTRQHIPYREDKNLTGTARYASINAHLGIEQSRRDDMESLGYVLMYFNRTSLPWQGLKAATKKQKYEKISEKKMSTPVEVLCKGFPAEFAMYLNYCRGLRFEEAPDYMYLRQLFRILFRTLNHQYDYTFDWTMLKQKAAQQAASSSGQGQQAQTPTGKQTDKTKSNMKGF
off-target kinases (Homo sapiens, UniProt P11362, V561M), sequence (P11362 22-822 V561M): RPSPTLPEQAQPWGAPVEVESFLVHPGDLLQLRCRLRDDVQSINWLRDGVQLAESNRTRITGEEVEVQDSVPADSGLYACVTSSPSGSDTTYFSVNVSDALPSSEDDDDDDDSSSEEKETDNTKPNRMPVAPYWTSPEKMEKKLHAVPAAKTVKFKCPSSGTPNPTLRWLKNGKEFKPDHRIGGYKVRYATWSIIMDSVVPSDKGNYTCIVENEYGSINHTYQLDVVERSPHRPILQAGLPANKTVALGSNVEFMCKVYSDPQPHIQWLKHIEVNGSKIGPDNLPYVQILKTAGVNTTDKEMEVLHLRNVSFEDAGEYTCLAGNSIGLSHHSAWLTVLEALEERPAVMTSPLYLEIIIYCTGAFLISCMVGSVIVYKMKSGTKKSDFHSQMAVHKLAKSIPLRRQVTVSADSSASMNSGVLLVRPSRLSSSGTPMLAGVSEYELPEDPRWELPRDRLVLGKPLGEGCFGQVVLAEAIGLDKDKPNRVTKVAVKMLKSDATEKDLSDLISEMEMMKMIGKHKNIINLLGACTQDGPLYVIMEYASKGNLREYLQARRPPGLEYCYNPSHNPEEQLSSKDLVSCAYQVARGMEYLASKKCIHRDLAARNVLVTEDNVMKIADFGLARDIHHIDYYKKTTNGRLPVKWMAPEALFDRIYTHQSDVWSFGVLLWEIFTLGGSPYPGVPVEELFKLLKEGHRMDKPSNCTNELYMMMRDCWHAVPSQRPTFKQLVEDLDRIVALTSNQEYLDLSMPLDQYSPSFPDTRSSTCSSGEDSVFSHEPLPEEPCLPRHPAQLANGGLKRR
off-target kinases (Homo sapiens, UniProt P43250), sequence (P43250 whole entry): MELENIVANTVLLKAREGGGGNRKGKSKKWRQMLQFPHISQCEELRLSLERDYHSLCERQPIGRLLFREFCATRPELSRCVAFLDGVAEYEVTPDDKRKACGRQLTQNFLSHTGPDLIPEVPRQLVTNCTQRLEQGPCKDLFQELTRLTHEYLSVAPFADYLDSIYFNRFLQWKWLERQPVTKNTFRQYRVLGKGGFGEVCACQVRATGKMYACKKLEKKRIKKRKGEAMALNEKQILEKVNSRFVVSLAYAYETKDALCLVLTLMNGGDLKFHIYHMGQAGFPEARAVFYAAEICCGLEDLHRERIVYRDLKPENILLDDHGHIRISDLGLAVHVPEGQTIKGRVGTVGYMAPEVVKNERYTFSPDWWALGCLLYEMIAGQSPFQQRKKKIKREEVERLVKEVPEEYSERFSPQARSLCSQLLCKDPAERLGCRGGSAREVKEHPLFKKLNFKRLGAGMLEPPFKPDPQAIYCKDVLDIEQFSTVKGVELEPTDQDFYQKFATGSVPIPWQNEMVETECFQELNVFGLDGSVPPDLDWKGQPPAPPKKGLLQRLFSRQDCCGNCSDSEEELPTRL

Consider `N#Cc1cc(-c2ncnc(Nc3ccc(N4CCN(C5COC5)CC4)cc3)n2)ccc1OC1CCOCC1` [Compound 1, 5-(4-((4-(4-(oxetan-3-yl)piperazin-1-yl)phenyl)amino)-1,3,5-triazin-2-yl)-2-((tetrahydro-2H-pyran-4-yl)oxy)benzonitrile], for which the inhibition (commonly the drop in the measured response relative to a control, in per cent) on off-target kinases [1] (read-out: % Inhibition 1) is -2%; on off-target kinases [1] (read-out: % Inhibition 2), 0%; on off-target kinases [1] (read-out: % Inhibition Avg), -1%; at off-target kinases [2] (read-out: % Inhibition 1), 13%; at off-target kinases [2] (read-out: % Inhibition 2), 10%; on off-target kinases [2] (read-out: % Inhibition Avg), 12%. For the same compound, the inhibition on off-target kinases [3] (read-out: % Inhibition 1) is 16%; on off-target kinases [3] (read-out: % Inhibition 2), 17%; on off-target kinases [3] (read-out: % Inhibition Avg) it was 17%; on off-target kinases [4] (read-out: % Inhibition 1), 2%; on off-target kinases [4] (read-out: % Inhibition 2), 1%; on off-target kinases [4] (read-out: % Inhibition Avg) it was 1%. In addition, the inhibition amounted to 20% on off-target kinases [5] (read-out: % Inhibition 1); 25% at off-target kinases [5] (read-out: % Inhibition 2); 23% at off-target kinases [5] (read-out: % Inhibition Avg); 2% on off-target kinases [6] (read-out: % Inhibition 1); 2% at off-target kinases [6] (read-out: % Inhibition 2); 2% on off-target kinases [6] (read-out: % Inhibition Avg). Further, the inhibition on off-target kinases [7] (read-out: % Inhibition 1), at off-target kinases [7] (read-out: % Inhibition 2) and on off-target kinases [7] (read-out: % Inhibition Avg) was 53% throughout.
